# From ChEMBL document CHEMBL4359935, “Selective toxicity of chrysin on mitochondria isolated from liver of a HCC rat model” (Bioorg Med Chem, 2019)
# Active and inactive are the calls of the source. The rule behind the calls is not given here.
# Columns and labels:
# [1] = species on record: Rattus norvegicus; assay: Induction of mitochondrial swelling in HCC model Sprague-Dawley rat hepatocyte at 10 to 40 uM; type: functional
# [2] = system: Hepatocyte; assay: Induction of apoptosis in isolated HCC model Sprague-Dawley rat hepatocytes assessed as increase in cytochrome C release at 20 uM by ELISA relative to control; type: functional
# [3] = Induction of mitochondrial swelling in Sprague-Dawley rat hepatocyte at 10 to 40 uM; conditions: hepatocytes
# [4] = species on record: Rattus norvegicus; assay: Induction of ROS production in HCC model Sprague-Dawley rat hepatocyte mitochondria at 10 to 40 uM incubated upto 60 mins by DCFH probe based fluorescence spectrophotometer; type: functional
# [5] = species on record: Rattus norvegicus; assay: Induction of mitochondrial membrane potential disruption in HCC model Sprague-Dawley rat hepatocyte assessed as collapsed mitochondrial membrane potential at 10 to 40 uM incubated upto 60 mins by Rhodamine 123 probe based fluorescence spectrophotometry; type: functional
# [6] = target: Succinate dehydrogenase [ubiquinone] flavoprotein subunit, mitochondrial (Rattus norvegicus) (UniProt Q920L2); assay: Inhibition of SDH in HCC model Sprague-Dawley rat hepatocyte mitochondria at 10 to 40 uM incubated for 40 mins by MTT assay
# Succinate dehydrogenase [ubiquinone] flavoprotein subunit, mitochondrial (Rattus norvegicus), sequence (Q920L2 whole entry): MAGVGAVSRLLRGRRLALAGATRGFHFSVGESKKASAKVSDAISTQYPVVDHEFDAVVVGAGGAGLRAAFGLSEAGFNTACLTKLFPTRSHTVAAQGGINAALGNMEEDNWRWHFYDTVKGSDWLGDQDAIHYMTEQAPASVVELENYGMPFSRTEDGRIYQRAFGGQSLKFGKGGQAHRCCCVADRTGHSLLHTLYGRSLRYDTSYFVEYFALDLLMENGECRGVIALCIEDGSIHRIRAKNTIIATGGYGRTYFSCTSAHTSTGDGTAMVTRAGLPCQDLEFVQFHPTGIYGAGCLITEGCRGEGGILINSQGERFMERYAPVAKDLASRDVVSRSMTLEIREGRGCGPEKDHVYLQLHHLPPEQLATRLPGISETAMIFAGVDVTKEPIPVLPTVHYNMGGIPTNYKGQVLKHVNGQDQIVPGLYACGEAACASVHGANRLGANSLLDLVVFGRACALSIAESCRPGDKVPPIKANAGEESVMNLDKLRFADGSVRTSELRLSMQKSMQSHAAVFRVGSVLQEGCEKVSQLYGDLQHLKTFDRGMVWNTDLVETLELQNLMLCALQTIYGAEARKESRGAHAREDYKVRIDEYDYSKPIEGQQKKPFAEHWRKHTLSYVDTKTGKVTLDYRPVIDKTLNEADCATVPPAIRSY
# [7] = Induction of ROS production in Sprague-Dawley rat hepatocyte mitochondria at 10 to 40 uM incubated upto 60 mins by DCFH probe based fluorescence spectrophotometry; conditions: hepatocytes, 1 h
# [8] = system: Hepatocyte; assay: Induction of apoptosis in isolated HCC model Sprague-Dawley rat hepatocytes assessed as increase in cytochrome C release at 20 uM in presence of BHT by ELISA; type: functional, cell-based
# [9] = system: Hepatocyte; assay: Induction of apoptosis in isolated HCC model Sprague-Dawley rat hepatocytes assessed as increase in caspase 3 activity at 12 uM relative to control; type: functional
# [10] = Induction of mitochondrial membrane potential disruption in Sprague-Dawley rat hepatocyte assessed as collapsed mitochondrial membrane potential at 10 to 40 uM incubated upto 60 mins by Rhodamine 123 probe based fluorescence spectrophotometry; conditions: hepatocytes, 1 h
# [11] = Effect on SDH activity in Sprague-Dawley rat hepatocyte mitochondria at 10 to 40 uM incubated for 40 mins by MTT assay; type: ADME; conditions: hepatocytes
# [12] = system: Hepatocyte; assay: Induction of apoptosis in isolated HCC model Sprague-Dawley rat hepatocytes assessed as increase in cytochrome C release at 20 uM in presence of CsA by ELISA; type: functional, cell-based
structure (smiles),measurement,setting,value
O=c1cc(-c2ccccc2)oc2cc(O)cc(O)c12 [CHRYSIN],Activity,[1],Active
same,fold change (FC),[2],1.6
same,Activity,[3],Non-Toxic
same,Activity,[4],Active
same,Activity,[5],Active
same,inhibition,[6],Active
same,Activity,[7],Non-Toxic
same,Activity,[8],inactive
same,fold change (FC),[9],2.4
same,Activity,[10],Non-Toxic
same,Activity,[11],Non-Toxic
same,Activity,[12],inactive
